Measurements as given in ChEMBL document CHEMBL1132906, “Squalamine analogues as potential anti-trypanosomal and anti-leishmanial compounds” (2000).
Values joined by “and” are separate entries in the source; they are usually repeats but may differ in a detail not shown here. Equal values may be shown once. Active and inactive are the calls of the source. The rule behind the calls is not given here.

What was measured:
[1] = The compound was evaluated for its toxicity against KB cells; assay type: functional; conditions: Homo sapiens, read-out: ED50 (the source's name)
[2] = test system: Leishmania donovani; experiment: The compound was evaluated for its inhibitory activity against Leishmania donovani; assay type: functional; conditions: read-out: ED50 (the source's name)
[3] = test system: Trypanosoma cruzi; experiment: The compound was evaluated for its inhibitory activity against Trypanosoma cruzi (toxic effect on macrophages); assay type: functional; conditions: read-out: ED50 (the source's name)
[4] = test system: Trypanosoma brucei; experiment: The compound was evaluated for its inhibitory activity against Trypanosoma brucei; assay type: functional; conditions: read-out: ED50 (the source's name)
[5] = test system: Trypanosoma cruzi; experiment: The compound was evaluated for its inhibitory activity against Trypanosoma cruzi; assay type: functional; conditions: read-out: ED50 (the source's name)
[6] = test system: Trypanosoma brucei; experiment: The compound was evaluated for its inhibitory activity against Trypanosoma brucei (indicate results of two experiments); assay type: functional; conditions: read-out: ED50 (the source's name)
[7] = test system: Mus musculus; experiment: Inhibitory activity (in vivo) against mice infected with Trypanosoma rhodesiense after intraperitoneal administration of compound (50 mg/kg for 4 days); No effect; assay type: functional, organism-based
[8] = test system: Mus musculus; experiment: Percent reduction (in vivo) against mice infected with Leishmania donovani after intraperitoneal administration of compound (50 mg/kg for 5 days); assay type: functional
[9] = test system: Trypanosoma brucei; experiment: The compound was evaluated for the inhibition of Trypanosoma brucei at 1 (ug/ml).; assay type: functional

`CC(C(=O)NCCCN(CCCCNC(=O)OC(C)(C)C)C(=O)OC(C)(C)C)[C@H]1CCC2C3CC=C4C[C@@H](O)CC[C@]4(C)C3CC[C@@]21C` (stereo partly drawn) gave an EC50 [1] of 65 µM, an EC50 [2] of 25.7 µM and an EC50 [3] of over 15 µM. The EC50 [4] was 4.7 µM and 1.5 µM.
Molecule `CC(=O)O[C@H]1CC[C@@]2(C)C(=CCC3C2CC[C@@]2(C)C3CC[C@@H]2C(C)C(=O)NCCCN(CCCCNC(=O)OC(C)(C)C)C(=O)OC(C)(C)C)C1` (stereo partly drawn) has an EC50 [1] of 111 µM, an EC50 [2] of 17.3 µM and an EC50 [5] of over 42 µM. It also gave an EC50 [6] of 2.6 µM.
In the case of `CC(C(=O)NCCCN(CCCCNC(=O)OC(C)(C)C)C(=O)OC(C)(C)C)[C@H]1CCC2C3CC=C4C[C@@H](OS(=O)(=O)O)CC[C@]4(C)C3CC[C@@]21C` (stereo partly drawn), the EC50 [1] is reported as over 360 µM, the EC50 [2] is reported as 4.9 µM and the EC50 [3] is reported as over 36 µM. It also gave an EC50 [6] of over 36 µM.
Work on `CC(=O)O[C@H]1CC[C@@]2(C)C(=CCC3C2CC[C@@]2(C)C3CC[C@@H]2C(C)C(=O)NCCCN(CCCCN(CCCNC(=O)OC(C)(C)C)C(=O)OC(C)(C)C)C(=O)OC(C)(C)C)C1` (stereo partly drawn) yielded an EC50 [1] of 31 µM, an EC50 [2] of 4.7 µM and an EC50 [5] of over 34 µM. The EC50 ([4]; Trypanosoma brucei) was 1.1 µM and the EC50 [4] was 0.57 µM.
`CC(C(=O)NCCCNCCCCN)[C@H]1CCC2C3CC=C4C[C@@H](O)CC[C@]4(C)C3CC[C@@]21C` (stereo partly drawn) gave an EC50 [1] of 3.3 µM, an EC50 [2] of 44.7 µM and an EC50 [3] of over 63 µM. The EC50 [4] was 1.9 µM and 0.63 µM.
Molecule `CC(C(=O)NCCCN(CCCCN(CCCNC(=O)OC(C)(C)C)C(=O)OC(C)(C)C)C(=O)OC(C)(C)C)[C@H]1CCC2C3CC=C4C[C@@H](O)CC[C@]4(C)C3CC[C@@]21C` (stereo partly drawn) has an EC50 [1] of 27 µM, an EC50 [2] of 12.6 µM and an EC50 [5] of over 36 µM. The EC50 [6] was 0.6 µM.
Molecule `O=C(Cn1ccnc1[N+](=O)[O-])NCc1ccccc1` [BENZNIDAZOLE] has an EC50 [5] of 7.45 µg/mL.
In the case of `CC(C(=O)NCCCNCCCCNCCCN)[C@H]1CCC2C3CC=C4C[C@@H](O)CC[C@]4(C)C3CC[C@@]21C` (stereo partly drawn), the EC50 [1] is reported as 15 µM, the EC50 [2] is reported as 5 µM and the Activity [7] is reported as “inactive”. It also gave a Reduction [8] of 16%, an EC50 [3] of over 57 µM and an EC50 ([4]; Trypanosoma brucei) of 0.56 µM. For the same molecule, the EC50 [4] was 1.1 µM.
In the case of `N=C(N)c1ccc(OCCCCCOc2ccc(C(=N)N)cc2)cc1` [PENTAMIDINE], the Inhibition [9] is reported as 100%.
`CC(C(=O)NCCCNCCCCN)[C@H]1CCC2C3CC=C4C[C@@H](OS(=O)(=O)O)CC[C@]4(C)C3CC[C@@]21C` (stereo partly drawn) gave an EC50 [1] of over 526 µM, an EC50 [2] of 39.9 µM and an EC50 [5] of 13.5 µM. It also gave an EC50 [6] of over 53 µM.
